Nine compounds from BindingDB's records for doi:10.1016/j.bmc.2010.10.023 (Chugai Pharmaceutical, 2010) can be followed below.

A short description of the experiment: Antagonist activity at AR in human bicalutamide-resistant LNCAP cells assessed as inhibition of cell proliferation after 6 days.
As for `CC1(C)C(=O)N(c2ccc(C#N)c(C(F)(F)F)c2)C(=S)N1c1ccnc(S(N)(=O)=O)c1` [4-[3-(4-Cyano-3-trifluoromethylphenyl)-5,5-dimethyl-4-oxo-2-thioxoimidazolidin-1-yl]pyridine-2-sulfonic acid amide], the IC50 amounted to 80 nM.
Next, `CC1(C)C(=O)N(c2ccc(C#N)c(Cl)c2)C(=S)N1c1cccc(S(N)(=O)=O)n1` [6-[3-(3-Chloro-4-cyanophenyl)-5,5-dimethyl-4-oxo-2-thioxoimidazolidin-1-yl]pyridine-2-sulfonic acid amide]: 100 nM; `CC1(C)C(=O)N(c2ccc(C#N)c(C(F)(F)F)c2)C(=S)N1c1cccc(S(N)(=O)=O)c1` [3-[3-(4-Cyano-3-trifluoromethylphenyl)-5,5-dimethyl-4-oxo-2-thioxoimidazolidin-1-yl]benzenesulfonamide]: 100 nM; `CC1(C)C(=O)N(c2ccc(C#N)c(Cl)c2)C(=S)N1c1cncc(S(N)(=O)=O)c1` [5-[3-(3-Chloro-4-cyanophenyl)-5,5-dimethyl-4-oxo-2-thioxoimidazolidin-1-yl]pyridine-3-sulfonic acid amide]: 50 nM.
Under `CC1(C)C(=O)N(c2ccc(C#N)c(C(F)(F)F)c2)C(=S)N1c1cncc(S(N)(=O)=O)c1` [5-[3-(4-Cyano-3-trifluoromethylphenyl)-5,5-dimethyl-4-oxo-2-thioxoimidazolidin-1-yl]pyridine-3-sulfonic acid amide] stands 30 nM.
Next, `CC1(C)C(=O)N(c2ccc(C#N)c(Cl)c2)C(=S)N1CCCS(N)(=O)=O` [3-[3-(3-Chloro-4-cyanophenyl)-5,5-dimethyl-4-oxo-2-thioxoimidazolidin-1-yl]propane-1-sulfonamide]: 10 nM.
Consider `CC1(C)C(=O)N(c2ccc(C#N)c(C(F)(F)F)c2)C(=S)N1c1cccc(S(N)(=O)=O)n1` [6-[3-(4-Cyano-3-trifluoromethylphenyl)-5,5-dimethyl-4-oxo-2-thioxoimidazolidin-1-yl]pyridine-2-sulfonic acid amide], for which the IC50 was found to be 100 nM.
In the case of `CC1(C)C(=O)N(c2ccc(C#N)c(C(F)(F)F)c2)C(=S)N1c1ccccc1` [4-(3-Phenyl-4,4-dimethyl-5-oxo-2-thioxoimidazolidin-1-yl)-2-trifluoromethylbenzonitrile], the IC50 was found to be 100 nM.
Under `CC1(C)C(=O)N(c2ccc(C#N)c(Cl)c2)C(=S)N1c1cccc(S(N)(=O)=O)c1` [3-[3-(3-Chloro-4-cyanophenyl)-5,5-dimethyl-4-oxo-2-thioxoimidazolidin-1-yl]benzenesulfonamide] stands 100 nM.
